Results published in patent publication US20180155429A1, “TREATMENT OF PD-L1 POSITIVE LUNG CANCER USING AN ANTI-PD-1 ANTIBODY” (Bristol-Myers Squibb Company, priority 2015, published 2018).

Experiments:
[1] = Randomized phase III study of nivolumab versus docetaxel, exposure and safety; format: in vivo, human; conditions: for Treatment-related deaths: at DBL, treated pts
Method: (§1) 582 patients were randomized to receive either nivolumab or docetaxel. 292 were randomized to receive nivolumab, and of these, 287 actually received nivolumab. 290 were randomized to receive docetaxel, and of these, 268 actually received docetaxel. Patients were treated with nivolumab at 3 mg/kg IV Q2W until they experienced a progressive disease or unacceptable toxicity. Patients were treated with docetaxel at 75 mg/m^2 IV Q3W until progressive disease or unacceptable toxicity occurred. The primary end point of the study was overall survival (OS). The secondary endpoints of the study were overall response rate (ORR) (Per RECIST v1.1 criteria as determined by the investigator), progression free survival (PFS) (Per RECIST v1.1 criteria as determined by the investigator), efficacy by tumor PD-L1 expression, and disease-related symptom improvement rate by week 12. An overview of the trial can be seen in FIGS. 1A and 1B.

[2] = test system: advanced non-squamous (non-SQ) NSCLC; assay: Randomized phase III study of nivolumab versus docetaxel, efficacy (OS, PFS, ORR, DOR, also by tumor PD-L1 expression); format: in vivo, human; conditions: for Best overall response CR / Best overall response PD / Best overall response PR / Best overall response SD / Best overall response Unable to determine: Nivo N = 292, Doc N = 290; for mOS: PD-L1+ patients; for 1-year PFS rate / median OS / 1-year OS rate: all randomized pts; for 1-year OS rate: nivolumab 3 mg/kg IV Q2W, docetaxel 75 mg/m^2 IV Q3W; for Median time to response: all responders (NIVO, n = 56; DOC, n = 36); for Ongoing response: at last tumor assessment before censoring, responders
Method: as §1
All patients had either stage IIIB or stage IV non-squamous NSCLC and 1 prior PT-DC treatment. Prior maintenance therapy with pemetrexed, bevacizumab or erlotinib was allowed (and was not considered a separate line of therapy). Prior TKI therapy was allowed for a known ALK translocation or EGFR mutation. The ECOG PS was 0-1. Patients were stratified by prior maintenance therapy and line of therapy (second-vs third-line)
In this example, ALK means anaplastic lymphoma kinase; ECOG PS means Eastern Cooperative Oncology Group performance status; EGFR means epidermal growth factor receptor; IV means intravenous; LCSS means Lung Cancer Symptom Scale; ORR means objective response rate; OS=overall survival; PFS=progression-free survival; PD=progressive disease; and TKI means tyrosine kinase inhibitor.
The PD-L1 expression was measured for the patients. The DAKO PD-L1 Assay Analytical Validation and Clinical Sample Testing is described in Table 3.

PD-1 = target: T1, PD-1 (Homo sapiens, UniProt Q15116); conditions: 15 subjects, 0.3 mg/kg to 10 mg/kg, across all doses, cited from earlier work
T1 construct: Receptor-occupancy data from 15 subjects who received 0.3 mg/kg to 10 mg/kg dosing with nivolumab indicate that PD-1 occupancy appears to be dose-independent; endogenous in cells
T1 sequence (Q15116 25-288): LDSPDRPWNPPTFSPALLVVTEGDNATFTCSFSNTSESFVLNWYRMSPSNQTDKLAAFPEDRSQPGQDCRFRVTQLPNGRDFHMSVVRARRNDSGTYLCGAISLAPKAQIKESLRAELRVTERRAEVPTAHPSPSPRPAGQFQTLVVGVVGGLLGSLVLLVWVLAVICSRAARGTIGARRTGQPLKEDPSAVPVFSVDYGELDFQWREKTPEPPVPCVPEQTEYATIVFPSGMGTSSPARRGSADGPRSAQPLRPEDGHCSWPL

[3] = cited from earlier work
[4] = all randomized pts (Nivo N = 292, Doc N = 290), RECIST v1.1, investigator

Row | Compound | Treatment-related deaths [1] | Best overall response CR [2] | Best overall response PD [2] | Best overall response PR [2] | Best overall response SD [2] | Best overall response Unable to determine [2] | mOS ([2]; 1% expression level) [months] | mOS ([2]; 5% expression level) [months] | mOS ([2]; 10% expression level) [months] | Median DOR ([2]; PD-L1 Negative (<1%)) [mos] | ORR ([2]; PD-L1 Negative (<1%)) [%] | Median DOR ([2]; PD-L1 Negative (<5%)) [mos] | ORR ([2]; PD-L1 Negative (<5%)) [%] | Median DOR ([2]; PD-L1 Negative (<10%)) [mos] | ORR ([2]; PD-L1 Negative (<10%)) [%] | Median DOR ([2]; PD-L1 Not quantifiable) [mos] | ORR ([2]; PD-L1 Not quantifiable) [%] | Median DOR ([2]; PD-L1 Positive (≥1%)) [mos] | ORR ([2]; PD-L1 Positive (≥1%)) [%] | Median DOR ([2]; PD-L1 Positive (≥5%)) [mos] | further results
1 | CC(=O)O[C@@]12CO[C@@H]1C[C@H](O)[C@@]1(C)C(=O)[C@H](O)C3=C(C)[C@@H](OC(=O)[C@H](O)[C@@H](NC(=O)OC(C)(C)C)c4ccccc4)C[C@@](O)([C@@H](OC(=O)c4ccccc4)[C@H]21)C3(C)C [docetaxel, reference compound] | 0.4^9 | (0.3) % | (29) % | (12) % | (42) % | (16) % | 9.0 | 8.1 | 8.0 | 5.6 | 15 | 5.6 | 14 | 5.6 | 14 | 6.6 | 9.1 | 5.6 | 12 | 5.6 | Treatment-related select AE: Hypothyroidism ([1]; human, in vivo): 0%; Treatment-related select AE: Pneumonitis ([1]; human, in vivo): 0.4%; ORR ([2]; PD-L1 Positive (≥5%)): 13%; Median DOR ([2]; PD-L1 Positive (≥10%)): 5.6 mos; ORR ([2]; PD-L1 Positive (≥10%)): 13%; 1-year PFS rate [2]: 8.1%; median OS [2]: 9.4 months; ORR [2, 4]: 12%; 1-year OS rate [2]: 39%; Median DOR ([2]; all responders): 5.6 mos; Median time to response [2]: 2.6 mos; Ongoing response [2]: (14) %
2 | nivolumab | 0^8 | (1.4) % | (44) % | (18) % | (25) % | (11) % | 17.2 | 18.2 | 19.4 | 18.3 | 9.3 | 18.3 | 10 | 18.3 | 11 | 7.3 | 13 | 16.0 | 31 | 16.0 | mean plateau PD-1 occupancy (PD-1; range 59% to 81%): 72%; mean PD-1 occupancy rate (PD-1; range 70% to 97%): 85%; tolerated dose ([3]; given intravenously every 2 weeks): up to 10 mg/kg; maximum tolerated dose (MTD) ([3]; nivolumab monotherapy every two weeks, MTD not reached): > 10 mg/kg; safety profile ([1]; in vivo): favorable vs docetaxel; Estimated odds ratio (95% CI) for ORR ([2]; Nivo vs Doc, P-value 0.0246): 1.7 (1.1, 2.6); ORR ([2]; PD-L1 Positive (≥5%)): 36%; Median DOR ([2]; PD-L1 Positive (≥10%)): 16.0 mos; ORR ([2]; PD-L1 Positive (≥10%)): 37%; 1-year PFS rate [2]: 19%; median OS [2]: 12.2 months; ORR [2, 4]: 19%; 1-year OS rate [2]: 51%; Median DOR ([2]; all responders): 17.2 mos; Median time to response [2]: 2.1 mos; Ongoing response [2]: (52) %; reduction in risk of death ([2]; nivolumab in comparison to docetaxel): 27%; HR (risk of death) ([2]; nivolumab in comparison to docetaxel, P=0.0015): 0.73
